This assay has as its target human adenosine A2b receptor (Homo sapiens (Human), UniProt P29275). The assay can be described thus: Cellular in vitro reporter gene test for A2b receptor activity (CHO-K1, CRE-luciferase, NECA stimulation). The assay is classed as cell-based. The settings on record: recombinant CHO-K1 cell line, CRE-luciferase reporter, antagonism of EC50 concentration of NECA; in some cases means of several determinations, rounded to two significant figures; read-out: A2b receptor IC50. As for the experimental part: B-1. Cellular In Vitro Tests for Determining A2b Receptor Activity and Adenosine Receptor Selectivity
In the case of the A2a and A2b cell lines, this is a minimal promoter having a plurality of cAMP-responsive elements (CRE). Stimulation of the Gs-coupled A2b or A2a receptors by NECA ultimately leads, via formation of cAMP, to CRE-dependent induction of luciferase expression, which is detected 3 hours after the start of the incubation with NECA using a detection solution in a suitable luminometer. For testing the antagonists, initially, in a pre-experiment, the concentration of NECA which, at the test day in question, results in half-maximum stimulation of luciferase expression (EC50 concentration) is determined. By joint incubation of this EC50 concentration of NECA with the substances to be tested, it is possible to determine their antagonistic activity.
On the technique in general: In a reporter assay the amount or activity of a reporter protein is the signal.
Chain of human adenosine A2b receptor (P29275 whole entry): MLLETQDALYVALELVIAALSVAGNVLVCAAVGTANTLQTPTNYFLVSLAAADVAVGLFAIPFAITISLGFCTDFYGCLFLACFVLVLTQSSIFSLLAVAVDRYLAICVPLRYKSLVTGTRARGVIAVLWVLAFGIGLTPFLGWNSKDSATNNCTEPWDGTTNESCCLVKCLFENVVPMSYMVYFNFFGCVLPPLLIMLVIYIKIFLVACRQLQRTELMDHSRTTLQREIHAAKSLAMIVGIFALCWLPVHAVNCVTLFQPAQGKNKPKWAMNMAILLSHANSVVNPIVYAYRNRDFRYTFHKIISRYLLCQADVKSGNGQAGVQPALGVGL
In the case of `COC(=O)N=C1NCCN1Cc1sc2c(c1C)c(=O)n(C(C)C)c(=O)n2CC1CCCO1` (racemic) [Example 380, Methyl [1-{[3-isopropyl-5-methyl-2,4-dioxo-1-(tetrahydrofuran-2-ylmethyl)-1,2,3,4-tetrahydrothieno[2,3-d]pyrimidin-6-yl]methyl}imidazolidin-2-ylidene]carbamate], the IC50 – broadly, the concentration at which inhibition is half-maximal – came out at 12 nM. Consider `Cc1c(CN2CCNC2=O)sc2c1c(=O)n(CC(C)C)c(=O)n2CC1CCO1` (single isomer, unassigned) [Example 196, 3-Isobutyl-5-methyl-1-(oxetan-2-ylmethyl)-6-[(2-oxoimidazolidin-1-yl)methyl]thieno[2,3-d]pyrimidine-2,4(1H,3H)-dione], for which the 50% inhibitory concentration (IC50) was 6.5 nM. In the case of `COCCn1c(=O)n(C(C)C)c(=O)c2c(C)c(Cn3[nH]ccc3=O)sc21` [Example 133, 3-Isopropyl-1-(2-methoxyethyl)-5-methyl-6-[(5-oxo-2,5-dihydro-1H-pyrazol-1-yl)methyl]thieno[2,3-d]pyrimidine-2,4(1H,3H)-dione] it was 26 nM; in that of `COC(=O)N=C1NCCN1Cc1sc2c(c1C)c(=O)n(CC(C)OC)c(=O)n2CCC(F)(F)F` (single isomer, unassigned) [Example 474, Methyl [1-{[3-(2-methoxypropyl)-5-methyl-2,4-dioxo-1-(3,3,3-trifluoropropyl)-1,2,3,4-tetrahydrothieno[2,3-d]pyrimidin-6-yl]methyl}imidazolidin-2-ylidene]carbamate], 5.6 nM; in that of `CCn1c(=O)c2c(C)c(CN3CCNC3=NC#N)sc2n(CCC(F)(F)F)c1=O` [Example 255, [1-{[3-Ethyl-5-methyl-2,4-dioxo-1-(3,3,3-trifluoropropyl)-1,2,3,4-tetrahydrothieno[2,3-d]pyrimidin-6-yl]methyl}imidazolidin-2-ylidene]cyanamide], 13 nM. For the molecule `CCn1c(=O)c2c(C)c(CN3C(=O)OCC3(C)C)sc2n(CCC(F)(F)F)c1=O` [Example 24, 6-[(4,4-Dimethyl-2-oxo-1,3-oxazolidin-3-yl)methyl]-3-ethyl-5-methyl-1-(3,3,3-trifluoropropyl)thieno[2,3-d]pyrimidine-2,4(1H,3H)-dione], the IC50 was found to be 8.8 nM. Consider `CCn1c(=O)c2c(C)c(CN3CCNC3=O)sc2n(CC(C)OC)c1=O` (single isomer, unassigned; enantiomer 1) [Example 63, 3-Ethyl-1-(2-methoxypropyl)-5-methyl-6-[(2-oxoimidazolidin-1-yl)methyl]thieno[2,3-d]pyrimidine-2,4(1H,3H)-dione (Enantiomer 1)], for which the concentration for half-maximal inhibition (IC50) stood at 39 nM. The same measure for `COCCn1c(=O)n(CC(C)(C)O)c(=O)c2c(C)c(CN3CCNC3=O)sc21` [Example 228, 3-(2-Hydroxy-2-methylpropyl)-1-(2-methoxyethyl)-5-methyl-6-[(2-oxoimidazolidin-1-yl)methyl]thieno[2,3-d]pyrimidine-2,4(1H,3H)-dione]: 130 nM; for `CCn1c(=O)c2c(C)c(CN3CCNC3=S)sc2n(CC2CCCCO2)c1=O` (single isomer, unassigned) [Example 141, 3-Ethyl-5-methyl-1-(tetrahydro-2H-pyran-2-ylmethyl)-6-[(2-thioxoimidazolidin-1-yl)methyl]thieno[2,3-d]pyrimidine-2,4(1H,3H)-dione]: 120 nM; for `CCn1c(=O)c2c(C)c(CN3CCNC3=S)sc2n(CC2CCO2)c1=O` (racemic) [Example 34, 3-Ethyl-5-methyl-1-(oxetan-2-ylmethyl)-6-[(2-thioxoimidazolidin-1-yl)methyl]thieno[2,3-d]pyrimidine-2,4(1H,3H)-dione (racemate)]: 10 nM. In the case of `CCn1c(=O)c2c(C)c(CN3CCNC3=O)sc2n(CC2CCOC2)c1=O` (single isomer, unassigned; enantiomer 2) [Example 75, 3-Ethyl-5-methyl-6-[(2-oxoimidazolidin-1-yl)methyl]-1-(tetrahydrofuran-3-ylmethyl)thieno[2,3-d]pyrimidine-2,4(1H,3H)-dione (Enantiomer 2)] it was 40 nM. On to `COC(C)Cn1c(=O)c2c(C)c(CN3CCNC3=O)sc2n(CCC(F)(F)F)c1=O` (single isomer, unassigned) [Example 414, 3-(2-Methoxypropyl)-5-methyl-6-[(2-oxoimidazolidin-1-yl)methyl]-1-(3,3,3-trifluoropropyl)thieno[2,3-d]pyrimidine-2,4(1H,3H)-dione], for which the IC50 worked out at 11 nM. The same measure for `Cc1c(CN2CCNC2=S)sc2c1c(=O)n(CC(C)C)c(=O)n2CC1CCO1` (single isomer, unassigned) [Example 147, 3-Isobutyl-5-methyl-1-(oxetan-2-ylmethyl)-6-[(2-thioxoimidazolidin-1-yl)methyl]thieno[2,3-d]pyrimidine-2,4(1H,3H)-dione]: 22 nM; for `COC(=O)N=C1NCCN1Cc1sc2c(c1C)c(=O)n(CC(C)(C)C)c(=O)n2CCC(F)(F)F` [Example 461, Methyl [1-{[3-(2,2-dimethylpropyl)-5-methyl-2,4-dioxo-1-(3,3,3-trifluoropropyl)-1,2,3,4-tetrahydrothieno[2,3-d]pyrimidin-6-yl]methyl}imidazolidin-2-ylidene]carbamate]: 9.2 nM. `Cc1c(CN2CCNC2=O)sc2c1c(=O)n(CC(C)(C)C)c(=O)n2CC1CCCO1` (single isomer, unassigned) [Example 408, 3-(2,2-Dimethylpropyl)-5-methyl-6-[(2-oxoimidazolidin-1-yl)methyl]-1-(tetrahydrofuran-2-ylmethyl)thieno[2,3-d]pyrimidine-2,4(1H,3H)-dione]: the IC50 worked out at 12 nM. Turning to `CCOCCn1c(=O)n(CC)c(=O)c2c(C)c(CN3CCNC3=O)sc21` [Example 60, 1-(2-Ethoxyethyl)-3-ethyl-5-methyl-6-[(2-oxoimidazolidin-1-yl)methyl]thieno[2,3-d]pyrimidine-2,4(1H,3H)-dione], the IC50 came to 13 nM. The same measure for `COCCn1c(=O)n(C(C)COC)c(=O)c2c(C)c(CN3CCNC3=O)sc21` (single isomer, unassigned) [Example 330, 1-(2-Methoxyethyl)-3-(1-methoxypropan-2-yl)-5-methyl-6-[(2-oxoimidazolidin-1-yl)methyl]thieno[2,3-d]pyrimidine-2,4(1H,3H)-dione]: 220 nM; for `COCCn1c(=O)n(CC(F)(F)F)c(=O)c2c(C)c(CN3CCNC3=O)sc21` [Example 94, 1-(2-Methoxyethyl)-5-methyl-6-[(2-oxoimidazolidin-1-yl)methyl]-3-(2,2,2-trifluoroethyl)thieno[2,3-d]pyrimidine-2,4(1H,3H)-dione]: 7.7 nM; for `Cc1c(CN2CCN(C)C2=S)sc2c1c(=O)n(CC(F)(F)F)c(=O)n2CCC(F)(F)F` [Example 306, 5-Methyl-6-[(3-methyl-2-thioxoimidazolidin-1-yl)methyl]-3-(2,2,2-trifluoroethyl)-1-(3,3,3-trifluoropropyl)thieno[2,3-d]pyrimidine-2,4(1H,3H)-dione]: 5.9 nM.

As to `COCCn1c(=O)c2c(C)c(Cn3cc[nH]c3=O)sc2n(CC2CCCO2)c1=O` (single isomer, unassigned) [Example 347, 3-(2-Methoxyethyl)-5-methyl-6-[(2-oxo-2,3-dihydro-1H-imidazol-1-yl)methyl]-1-(tetrahydrofuran-2-ylmethyl)thieno[2,3-d]pyrimidine-2,4(1H,3H)-dione], the IC50 was found to be 56 nM. The same measure for `CCn1c(=O)c2c(C)c(CN3CCNC3=O)sc2n(CC2CC2(F)F)c1=O` (single isomer, unassigned; enantiomer 1) [Example 55, 1-[(2,2-Difluorocyclopropyl)methyl]-3-ethyl-5-methyl-6-[(2-oxoimidazolidin-1-yl)methyl]thieno[2,3-d]pyrimidine-2,4(1H,3H)-dione (Enantiomer 1)]: 1.3 nM; for `CCn1c(=O)c2c(C(F)F)c(CN3CCNC3=O)sc2n(CCOC)c1=O` [Example 101, 5-(Difluoromethyl)-3-ethyl-1-(2-methoxyethyl)-6-[(2-oxoimidazolidin-1-yl)methyl]thieno[2,3-d]pyrimidine-2,4(1H,3H)-dione]: 12 nM. As to `Cc1c(CN2CCNC2=NC#N)sc2c1c(=O)n(C(C)C)c(=O)n2CC1CCCO1` (racemic) [Example 267, [1-{[3-Isopropyl-5-methyl-2,4-dioxo-1-(tetrahydrofuran-2-ylmethyl)-1,2,3,4-tetrahydrothieno[2,3-d]pyrimidin-6-yl]methyl}imidazolidin-2-ylidene]cyanamide], the IC50 amounted to 4.6 nM. For the molecule `Cc1c(CN2CCNC(=O)C2=O)sc2c1c(=O)n(C(C)C)c(=O)n2CC1CCCO1` (racemic) [Example 480, 6-[(2,3-Dioxopiperazin-1-yl)methyl]-3-isopropyl-5-methyl-1-(tetrahydrofuran-2-ylmethyl)thieno[2,3-d]pyrimidine-2,4(1H,3H)-dione], the IC50 came to 35 nM.

`COCCn1c(=O)c2c(C)c(CN3CCNC3=NC(=O)OC)sc2n(CC2CCO2)c1=O` (racemic) [Example 387, Methyl [1-{[3-(2-methoxyethyl)-5-methyl-1-(oxetan-2-ylmethyl)-2,4-dioxo-1,2,3,4-tetrahydrothieno[2,3-d]pyrimidin-6-yl]methyl}imidazolidin-2-ylidene]carbamate]: the IC50 is 96 nM. Take `Cc1c(CN2CCNC(=O)C2=O)sc2c1c(=O)n(CC(F)(F)F)c(=O)n2CCC(F)(F)F` [Example 122, 6-[(2,3-Dioxopiperazin-1-yl)methyl]-5-methyl-3-(2,2,2-trifluoroethyl)-1-(3,3,3-trifluoropropyl)thieno[2,3-d]pyrimidine-2,4(1H,3H)-dione]: the IC50 worked out at 3.9 nM.

The values are drawn from US10428083B2, “Heterocyclylmethyl-thienouracile as antagonists of the adenosine-A2B-receptor” (BAYER PHARMA AKTIENGESELLSCHAFT, priority 2015, dated 2019).
